Source: the supplement of paper PMC10307832

Tests used:
Test in all cases: relative viability (nuclei count vs DMSO), 5 days (fraction); higher = more cells survive
PAC-1 + Palbociclib = compound: C=CCc1cccc(/C=N/NC(=O)CN2CCN(Cc3ccccc3)CC2)c1O [PAC-1] + CC(=O)c1c(C)c2cnc(Nc3ccc(N4CCNCC4)cn3)nc2n(C2CCCC2)c1=O [Palbociclib] (partner 0.5 µM)
In short: (§1)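 Lung cancer cell lines were pin-tool dosed in 1536-well plates on the day after seeding, with either a lone drug or a fixed anchor-drug dose plus five library-drug doses (not always all listed) in √10 steps. Nuclei were counted on 4× images after 5 days. Relative viability is the ratio of treated-well to vehicle-well nuclei counts, with each value a median of duplicate plates.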

BMX-IN-1 + Palbociclib = compound: C=CC(=O)Nc1cc(-n2c(=O)ccc3cnc4ccc(-c5ccc(NS(C)(=O)=O)cc5)cc4c32)ccc1C [BMX-IN-1] + CC(=O)c1c(C)c2cnc(Nc3ccc(N4CCNCC4)cn3)nc2n(C2CCCC2)c1=O [Palbociclib] (partner 0.5 µM)
In short: as §1

PAC-1 + Vorinostat = compound: C=CCc1cccc(/C=N/NC(=O)CN2CCN(Cc3ccccc3)CC2)c1O [PAC-1] + O=C(CCCCCCC(=O)Nc1ccccc1)NO [Vorinostat] (partner 1 µM)
In short: as §1

Ibrutinib + OSI-027 = compound: C=CC(=O)N1CCC[C@@H](n2nc(-c3ccc(Oc4ccccc4)cc3)c3c(N)ncnc32)C1 [Ibrutinib] + COc1cccc2cc(-c3nc([C@H]4CC[C@H](C(=O)O)CC4)n4ncnc(N)c34)[nH]c12 [OSI-027] (partner 0.5 µM)
In short: as §1

| Cell Line | relative viability (PAC-1 + Palbociclib; first compound 0.02 µM) | relative viability (PAC-1 + Palbociclib; first compound 0.06325 µM) | relative viability (PAC-1 + Palbociclib; first compound 0.2 µM) | relative viability (PAC-1 + Palbociclib; first compound 2 µM) | relative viability (BMX-IN-1 + Palbociclib; first compound 0.02 µM) | relative viability (BMX-IN-1 + Palbociclib; first compound 0.2 µM) | relative viability (BMX-IN-1 + Palbociclib; first compound 0.6325 µM) | relative viability (BMX-IN-1 + Palbociclib; first compound 2 µM) | relative viability (PAC-1 + Vorinostat; first compound 0.02 µM) | relative viability (PAC-1 + Vorinostat; first compound 0.06325 µM) | relative viability (PAC-1 + Vorinostat; first compound 0.2 µM) | relative viability (PAC-1 + Vorinostat; first compound 2 µM) | relative viability (Ibrutinib + OSI-027; first compound 0.005 µM) | relative viability (Ibrutinib + OSI-027; first compound 0.01581 µM) | relative viability (Ibrutinib + OSI-027; first compound 0.05 µM) | relative viability (Ibrutinib + OSI-027; first compound 0.1581 µM) | relative viability (Ibrutinib + OSI-027; first compound 0.5 µM) |
| --- | --- | --- | --- | --- | --- | --- | --- | --- | --- | --- | --- | --- | --- | --- | --- | --- | --- |
| 201T | 0.347 | 0.346 | 0.37 | 0.363 | 0.392 | 0.391 | 0.42 | 0.348 | 0.957 | 0.949 | 1.09 | 1.05 | 0.758 | 0.665 | 0.882 | 0.608 | 0.762 |
| A-427 | 0.574 | 0.548 | 0.549 | 0.507 | 0.488 | 0.573 | 0.571 | 0.504 | 0.891 | 0.889 | 0.86 | 0.8 | 0.36 | 0.431 | 0.512 | 0.369 | 0.499 |
| ABC-1 | 0.63 | 0.742 | 0.678 | 0.638 | 0.76 | 0.503 | 0.537 | 0.589 | 1.06 | 1 | 1.44 | 1.09 | 0.331 | 0.457 | 0.479 | 0.441 | 0.547 |
| BEN | 0.443 | 0.489 | 0.47 | 0.459 | 0.489 | 0.479 | 0.479 | 0.518 | 0.558 | 0.58 | 0.552 | 0.601 | – | 0.3 | 0.288 | – | 0.298 |
| CAL-12T | 0.544 | 0.52 | 0.379 | 0.513 | 0.466 | 0.415 | 0.523 | 0.503 | 0.89 | 0.793 | 0.688 | 0.712 | 0.369 | 0.579 | 0.601 | 0.569 | 0.562 |
| COR-L23 | 0.33 | 0.243 | – | 0.277 | 0.306 | 0.293 | 0.384 | 0.311 | 0.415 | 0.429 | – | 0.364 | 0.644 | 0.731 | 0.762 | 0.875 | 0.882 |
| COR-L 105 | 0.367 | 0.402 | 0.379 | 0.461 | 0.449 | 0.442 | 0.447 | 0.39 | 1.08 | 0.817 | 0.817 | 0.801 | 0.393 | 0.467 | 0.389 | 0.609 | 0.31 |
| ChaGo-K-1 | 0.914 | 0.933 | 0.956 | 0.954 | 0.996 | 1.13 | 0.905 | 0.987 | 0.754 | 0.773 | 0.65 | 0.829 | 0.582 | 0.521 | 0.482 | 0.414 | 0.63 |
| EKVX | 0.389 | 0.385 | 0.308 | 0.388 | 0.424 | 0.37 | 0.773 | 0.416 | 0.768 | 0.776 | 0.793 | 0.69 | 0.644 | 0.663 | 0.763 | 0.737 | 0.511 |
| EMC-BAC-2 | 0.55 | 0.524 | 0.519 | 0.519 | 0.543 | 0.537 | 0.528 | 0.516 | 0.414 | 0.531 | 0.774 | 0.478 | 0.33 | 0.352 | 0.403 | 0.426 | 0.405 |
| EPLC-272H | 0.279 | 0.28 | 0.293 | 0.268 | 0.323 | 0.324 | 0.323 | 0.317 | 0.457 | 0.3 | 0.309 | 0.225 | 0.246 | 0.255 | 0.219 | 0.242 | 0.208 |
| H3255 | 0.359 | 0.298 | 0.299 | 0.291 | 0.311 | 0.318 | 0.349 | 0.299 | 0.923 | 0.762 | 0.87 | 0.593 | 0.459 | 0.547 | 0.623 | 0.654 | 0.406 |
| HARA | 0.228 | 0.225 | 0.247 | 0.329 | 0.304 | 0.299 | 0.258 | 0.247 | – | 0.56 | 0.529 | 0.526 | 0.303 | 0.437 | 0.297 | 0.38 | 0.247 |
| HCC-15 | 0.743 | 0.747 | 0.628 | 0.689 | 0.844 | 0.762 | 0.84 | 0.802 | 0.782 | 0.861 | 0.769 | 0.825 | 0.654 | 0.595 | 0.689 | 0.403 | 0.757 |
| HCC-44 | 1.04 | 0.984 | 0.965 | 0.993 | 1.02 | 0.96 | 0.996 | 0.979 | 1.11 | 1.05 | 1.03 | 1.09 | 0.44 | 0.517 | 0.585 | – | 0.669 |
| HCC-78 | 0.477 | 0.454 | 0.505 | 0.465 | 0.447 | 0.464 | 0.492 | 0.549 | 0.379 | 0.416 | 0.435 | 0.431 | 0.309 | 0.362 | 0.36 | 0.355 | 0.308 |
